Test results from patent US12060586B2, “Cell data recorders and uses thereof” (The Broad Institute, Inc., priority 2018, dated 2024).

System: Wnt signaling
Assay: Wnt signaling-driven luciferase expression in HEK293T cells
Format: cell-based, human
Conditions: HEK293T transfected with (LEF-TCF)7-BE3-P2A-Luc; LiCl 50 mM, 24 hours
Description: The Wnt signaling pathway (also known as a signaling cascade) plays a crucial role in embryonic development and aberrant Wnt signaling is associated with a variety of diseases in humans (38). A recording of Wnt signaling was sought using CAMERA 2m in human cells. To achieve this goal, the expression of BE3 was placed under a (LEF-TCF)7 promoter (39) that responds to Wnt signaling to initiate downstream gene expression in CAMERA 2 m.3. […] A (LEF-TCF)7-BE3-P2A-Luc construct that expresses a firefly luciferase protein together with BE3 was included so that Wnt could be monitored simultaneously by luminescence and by high-throughput sequencing of the CCR5 recording locus. […] This increase in Wnt signaling was permanently recorded by a 53-fold increase in base editing at the CCR5 locus upon LiCl treatment (FIG. 5E).
To enable CAMERA 2m to record Wnt signaling, a (TCF/LEF)7 promoter was installed upstream BE3 and BE3-P2A-Luc to generate CAMERA 2 m.3 ((TCF/LEF)7-BE3 and ((TCF/LEF)7-BE3-P2A-Luc). TOPFlash ((TCF/LEF)7-Luc) (47) was used as a transient readout of Wnt signaling. A control plasmid that encodes the Renilla luciferase was included to normalize transfection efficiency for luminescence readout. […]
Firefly luciferase and Renilla luciferase activities were measured 24 hours after LiCl treatment. […]

[Cl-].[Li+] [LiCl]
fold increase in Wnt signaling-driven luciferase expression: 140 fold
